The target in assay [1] is T1, human Dusp1 (Homo sapiens, UniProt P28562).
T1 construct: expressed in transfected cells; host or cells: HeLa cells, pcDNA3.1, FuGene 6
T1 sequence (P28562 1-367): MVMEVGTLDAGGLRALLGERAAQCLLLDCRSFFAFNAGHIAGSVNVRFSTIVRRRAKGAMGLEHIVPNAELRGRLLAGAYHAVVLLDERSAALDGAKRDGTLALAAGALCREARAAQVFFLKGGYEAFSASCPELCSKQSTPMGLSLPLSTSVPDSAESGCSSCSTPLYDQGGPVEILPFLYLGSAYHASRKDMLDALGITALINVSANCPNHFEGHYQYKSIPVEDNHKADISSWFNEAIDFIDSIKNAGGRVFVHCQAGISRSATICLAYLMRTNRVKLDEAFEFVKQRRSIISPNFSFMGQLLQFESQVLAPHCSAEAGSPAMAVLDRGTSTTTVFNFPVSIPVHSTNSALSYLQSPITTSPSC
In words: Chemical complementation assay in HeLa cells, pERK restoration, Dusp1-Myc. The settings on record: TPA stimulated. The assay is classed as cell-based. As for the experimental part: (§1) These experiments were carried out essentially as described26. HeLa cells were obtained from ATCC (Manassas, Va.) and maintained in a humidified atmosphere of 5% CO2 at 37° C., Dulbecco's […] (DMEM) supplemented with 10% fetal bovine serum (FBS, HyClone, Logan, Utah), and 1% penicillin-streptomycin (Life Technologies, Inc., Rockville, Md.). c-Myc-Dusp6 and c-Myc-Dusp1 (also known as CL100) (kindly provided by Dr. Stephen Keyse, University of Dundee) were subcloned into pcDNA3.1 for ectopic expression in mammalian cells50. […] Plates were analyzed by three-channel multiparametric analysis for p-ERK and c-Myc-DUSP intensities in an area defined by nuclear staining using the Compartmental Analysis Bioapplication on an ArrayScan II high-content reader (Cellomics, Pittsburgh, Pa.). Restoration of ERK phosphorylation by BCI in Dusp6 overexpressing cells was quantified by Kolmogorov-Smirnov (KS) statistics as described previously using DUSP-transfected and vehicle treated control wells26. One thousand individual cells were gated for Dusp-Myc expression based on c-Myc immunostaining and analyzed for ERK phosphorylation. […] To quantify restoration of Erk phosphorylation in the Dusp expressing cells after compound treatment, KS values for each condition were normalized to the average KS value from four wells transfected with Dusp1 or Dusp6 and treated with vehicle. […]

For assay [2], the target named is T2, Dusp6 (Homo sapiens, UniProt Q16828).
T2 sequence (Q16828 1-381): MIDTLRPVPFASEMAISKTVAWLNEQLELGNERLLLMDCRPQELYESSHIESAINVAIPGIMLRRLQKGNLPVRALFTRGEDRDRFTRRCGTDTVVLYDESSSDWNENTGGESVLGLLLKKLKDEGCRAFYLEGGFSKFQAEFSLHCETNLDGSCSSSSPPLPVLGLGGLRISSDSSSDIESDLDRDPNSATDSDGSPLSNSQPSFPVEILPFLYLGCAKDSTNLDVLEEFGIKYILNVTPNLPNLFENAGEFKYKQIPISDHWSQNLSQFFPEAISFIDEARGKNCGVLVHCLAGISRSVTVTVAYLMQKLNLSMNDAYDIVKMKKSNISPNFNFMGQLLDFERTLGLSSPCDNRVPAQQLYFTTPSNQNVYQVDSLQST
Put plainly: Chemical complementation assay in HeLa cells, pERK restoration, Dusp6-Myc. The settings on record: TPA stimulated. Set-up: expressed in transfected cells; host or cells: HeLa cells, pcDNA3.1, FuGene 6. The class given is cell-based. As to the method: as §1

Assay [3] concerns the target T3, recombinant His-tagged Dusp6 (Homo sapiens, UniProt Q16828).
T3 construct: His
T3 sequence (Q16828 1-381): T2 sequence (Q16828 1-381)
Put plainly: In vitro pERK2 dephosphorylation assay (Western blot). The settings on record: 100 μM. The class given is biochemical. As to the method:
ERK dephosphorylation assays were performed as described previously with several modifications (Lazo, J. S. et al. J Pharmacol Exp Ther 322, 940-7 (2007)). Briefly, recombinant His-tagged Dusp6 (1.5 ng) was incubated for 20 minutes at 25° C. in the presence of 100 μM BCI, 100 μM ICD or 1 mM sodium orthovanadate. Tyrosine and threonine phosphorylated ERK2 (New England Biolabs; 10 ng) was added and reaction mixture (30 mM Tris-HCl, pH 7.0, 75 mM NaCl, 0.67 mM EDTA, 1 mM DTT and 0.033% bovine serum albumin) was incubated at 25° C. for a further 60 min. ERK desphosphorylation was determined by Western blotting using 10% Tris-glycine gels and a monoclonal phospho-p44/42 MAPK antibody (Cell Signaling) at 1:1000 dilution. Total ERK was measured as a loading control using an anti-ERK antibody (Cell Signaling).
Background: In western blotting, separated proteins are transferred to a membrane and probed.

Structures are written as SMILES.

As for `O=C1/C(=C/c2ccccc2)C(NC2CCCCC2)c2ccccc21` (stereo not drawn) [Compound 3, (E)-2-benzylidene-3-(cyclohexylamino)-2,3-dihydro-1H-inden-1-one], the IC50 in assay [1] (15 min compound, read-out: IC50, Dusp1 inhibition (pERK restoration)) is 11.2 µM; in assay [2] (15 min compound, read-out: IC50, Dusp6 inhibition (pERK restoration)) it was 16 µM. For the same molecule, the “suppression of Dusp6-mediated pERK2 dephosphorylation” value in assay [3] is listed as “specifically suppressed Dusp6 activity”.

With `O=C1CC(NC2CCCCC2)c2ccccc21` (stereo not drawn) [Compound 17, 3-(Cyclohexylamino)-2,3-dihydro-1H-inden-1-one], the “block of Dusp1 activity in chemical complementation assay” value in assay [1] is “did not block”. Also, the “block of Dusp6 activity in chemical complementation assay” value in assay [2] is on record as “did not block”. In addition, the “suppression of Dusp6-mediated pERK2 dephosphorylation” value in assay [3] is recorded as “did not”.

The values above are taken from patent US9127016B2, “Small molecule inhibitors of Dusp6 and uses therefor” (University of Pittsburgh—Of the Commonwealth System of …, priority 2009, dated 2015).
